Measured values from PubChem BioAssay (NCI).
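Briefly, cells in 96-well plates were exposed to five compound concentrations for 48 h, and endpoints were estimated by linear interpolation. GI50: concentration for 50% inhibition of growth. TGI: concentration producing complete growth inhibition.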

Assays:
Assay in all cases: NCI-60 cell line screen, 48 h
OVCAR-8 ovarian = tested on: OVCAR-8 ovarian
COLO 205 colon = tested on: COLO 205 colon
MCF7 breast = tested on: MCF7 breast
HOP-92 NSCLC = tested on: HOP-92 NSCLC
MOLT-4 leukemia = tested on: MOLT-4 leukemia
BT-549 breast = tested on: BT-549 breast
NCI-H460 lung = tested on: NCI-H460 lung
OVCAR-3 ovarian = tested on: OVCAR-3 ovarian
NCI-H23 lung = tested on: NCI-H23 lung

Compound | TGI (OVCAR-8 ovarian) [µM] | TGI (COLO 205 colon) [µM] | TGI (MCF7 breast) [µM] | TGI (HOP-92 NSCLC) [µM] | TGI (MOLT-4 leukemia) [µM] | TGI (BT-549 breast) [µM] | TGI (NCI-H460 lung) [µM] | TGI (OVCAR-3 ovarian) [µM] | TGI (NCI-H23 lung) [µM] | GI50 (BT-549 breast) [µM]
CCOC(=O)C1=C(C)N(CC(C)C)C2(O)C(OC)CC(=O)C3C(=O)N(c4ccccc4)C(=O)C132 (stereo not drawn) | 59.6 | > 100 | > 100 | > 100 | 75.6 | > 100 | > 100 | > 100 | > 100 | –
O=C1Nc2ccccc2C1S(=O)(=O)c1ccccc1 (stereo not drawn) | > 100 | > 100 | – | > 100 | > 100 | > 100 | > 100 | > 100 | > 100 | –
O=c1[nH]c(=S)[nH]c2c(C3OC(CO)C(O)C3O)nsc12 (stereo not drawn) | > 100 | > 100 | > 100 | > 100 | > 100 | > 100 | > 100 | > 100 | – | –
CC(=O)N1c2ccccc2[C@H]2CCc3c([nH]c4ccccc34)[C@H]21 | > 100 | 27.6 | – | 33.5 | 53.1 | 30 | 23.3 | 31.6 | 31.2 | –
COCCOCCOCCC(=O)NC1CC2CCC1(C)C2(C)C (stereo not drawn) | > 100 | > 100 | > 100 | – | > 100 | > 100 | > 100 | > 100 | > 100 | –
Clc1cccc2[nH]ncc12 | > 100 | > 100 | > 100 | > 100 | > 100 | > 100 | > 100 | > 100 | – | –
O=C(O)Cc1ccc(Oc2nc3ccccc3nc2-c2ccccc2)cc1 | > 100 | > 100 | > 100 | – | > 100 | > 100 | > 100 | 65.6 | > 100 | –
Cc1cc(OC(=O)Nc2ccc(Cl)cc2)ccc1C(=S)Nc1ccccc1 | > 100 | > 100 | > 100 | > 100 | > 100 | > 100 | > 100 | > 100 | – | –
C/C(=N\Nc1nc2ccccc2n1C)c1ccc2ccccc2n1 | > 100 | > 100 | 27.4 | 37.8 | – | > 59.6 | 32.1 | 0.213 | 31 | –
COc1ccc(/C=N/n2c(Cc3ccccc3)n[nH]c2=O)cc1 | > 100 | > 100 | > 100 | – | > 100 | > 100 | > 100 | > 100 | > 100 | –
CC(=O)Nc1cc(/C=C\C(=O)N2CC(CCl)c3c2cc(N)c2ccccc32)n(C)n1 (stereo not drawn) | – | 0.0901 | > 100 | > 100 | 0.0357 | – | – | > 100 | 0.0273 | 0.0225
Nc1c(C(=O)c2ccccc2)nnc2ccccc12 | > 100 | 36 | 62.6 | 48.7 | > 100 | 72.7 | 67.1 | – | > 100 | –
O/N=C1\CSc2ccccc2C1 | > 100 | > 100 | > 100 | > 100 | > 100 | – | > 100 | > 100 | > 100 | –
CCOP(=O)(/C=C/n1cnc2c(=O)n(C(C)=O)c(N)nc21)OCC | > 100 | > 100 | > 100 | – | > 100 | > 100 | > 100 | > 100 | > 100 | –
CCOP(=O)(/C=C\n1ccc(=O)[nH]c1=O)OCC | > 100 | > 100 | > 100 | – | > 100 | > 100 | – | > 100 | > 100 | –
CCOC(=O)C(C)(Cc1ccc(O)cn1)NC(=O)c1ccccc1 (stereo not drawn) | > 100 | > 100 | – | > 100 | > 100 | > 100 | > 100 | > 100 | > 100 | –
O=c1[nH]nc(Cc2ccccc2)n1C1CC1 | > 100 | > 100 | > 100 | > 100 | > 100 | – | > 100 | > 100 | > 100 | –
Cc1ccc(C=C(C(=O)O)C(=O)O)o1 | > 100 | > 100 | > 100 | – | > 100 | > 100 | > 100 | > 100 | > 100 | –
O=C(O)c1ccccc1CC(Cc1ccccc1)C(=O)O (stereo not drawn) | > 100 | > 100 | – | > 100 | > 100 | > 100 | > 100 | > 100 | > 100 | –
COc1cc(S(=O)(=O)Nc2ccc(-c3csc(/N=C\c4cccs4)n3)cc2)ccc1Cl | > 100 | > 100 | 48.5 | > 100 | – | > 100 | > 100 | > 100 | > 100 | –
O=C1c2ccccc2/C=C\C(c2ccccc2)=N/N1c1ccccc1Cl | > 100 | – | 63.9 | 78.4 | 77.1 | 28 | > 100 | > 100 | 93.6 | –
Nc1ncnc2c1N=C(c1ccccc1)CC(c1ccccc1)N2 (stereo not drawn) | > 100 | > 100 | > 100 | > 100 | > 100 | > 100 | – | > 100 | > 100 | –
O=S(=O)(c1ccc2ccccc2c1)N1CCN(S(=O)(=O)c2ccc3ccccc3c2)CC1 | > 100 | > 100 | > 100 | > 100 | – | > 100 | > 100 | > 100 | > 100 | –
CC(C)(CC1(C)NC(=O)NC1=O)OCc1ccccc1 (stereo not drawn) | > 100 | – | > 100 | > 100 | – | > 100 | > 100 | > 100 | > 100 | –
COC(=O)C1(Cc2ccccc2)Cc2c(C)ccc(C)c2C1=O (stereo not drawn) | 52.1 | 25.4 | 81.1 | 54.3 | 57.5 | – | > 100 | 85.1 | > 100 | –
